Patent US5364944A, “Substituted benzoylbenzene-, biphenyl- and 2-oxazole- alkanoic acid compounds” (American Home Products Corporation, priority 1993, dated 1994)

What was measured:
[1] = tested on: biosynthesis of LTB4 by isolated human neutrophils; assay: Inhibition of LTB4 biosynthesis by isolated human neutrophils (PMN); format: cell-based; conditions: A23187 stimulated human PMN; for inhibition at 2.5 µM: Neutrophil, read-out: % Inhibition of LTB4 Synthesis
Protocol: The ability of the compounds of the invention to inhibit the biosynthesis of LTB4 by isolated human neutrophils is evaluated in the following assay, which is carried out in this manner.
A leukocyte enriched blood sample obtained from a healthy donor is procured by leukophoresis using a Haemonetics model 30+ blood processor (Biological Specialties, Inc., Lansdale, Pa.). The top "platelet-rich" layer is removed after a low speed spin (35×g, 15 min, 25° C.) of the sample. The remaining cell suspension is centrigued (400×g, 10 min, 25° C.) to sediment the remaining cells. The supernatant is discarded and the cell pellet resuspended in 120 ml HBSS (without Ca^++ /Mg++). The cell suspension is subjected to ficoll-hypaque sedimentation (Histopaque 1077, 400×g, 30 min, 25° C.). Contaminating erythrocytes are lysed by hypotonic shock (1 min). The cells are then washed once with 40 ml of HBSS and resuspended with HBS S (without Ca^++ /Mg^++) to a concentration of 2.5×10^7 cells/ml for further use. Greater than 95% purity is obtained as assessed by microscopic examination.
One ml of human PMN (2.5×10^7 cells/ml) is incubated with vehicle or drugs (10 μl) for 10 min at 30° C. After preincubation, an equal volume of HBSS (1 ml) containing 2.4 mM CaCl2, 6 μM calcium ionophore A23187 and 50 μCi[^3 H]-acetate is then incubated at 30° C. for 15 minutes. An aliquot (100 μl) of the reaction mixture is taken out and mixed with 900 μl of 15% ethanol. LTB4 is extracted by using solid phase extraction on reverse phase C18 columns to remove excess [^3 H]-acetate and PAF. The C18 column is prewashed once with 2 ml of ethanol and water. The sample aliquot is acidified with 0.1 N HCl to pH3 before applying to the column. The column is then washed with 2 ml of water followed by 2 ml of 15% ethanol and 2 ml of petroleum ether to remove excess labeled acetate. The sample is eluted with 2 ml of ethyl acetate. The collected samples are dried with nitrogen and resuspended in 0.5 ml RIA buffer. The quantity of LTB4 in the sample is obtained from RIA determination.
Data presented are the mean +/- s.d. of the values relative to control A23187 stimulated cells for each experiment assayed in triplicate. Percent inhibition when used is calculated as:
% Inhibition=100-[(×.div.Control )×100]
Dose response analysis is performed by non-linear regression analysis for curve fitting and IC50 determination.

TxB2 = assay: Reverse passive Arthus pleurisy assay, inflammatory mediator release: TxB2; format: in vivo, rat (male Lewis); conditions: standard drugs; for ED50 TxB2: p.o., inflammatory mediator release, 5 min
Protocol: (§1) The compounds of the invention are further tested in the reverse passive Arthus pleurisy assay to evaluate their effectiveness in inflammatory mediator release and/or the fluid and cellular phases of an inflammatory response.
(§2) This assay is carried out as follows:
A reverse passive Arthus reaction is induced in the pleural cavity of male Lewis rats (150-200 g; fasted overnight prior to use) by the intravenous administration of bovine serum albumin (BSA; 4 mg/0.2 ml) followed 30 minutes later by the injection of rabbit anti-BSA (1 mg/0.2 ml; lyophilized IgG fraction; Organon Teknika, West Chester, Pa.) into the right pleural space under halothane anesthesia. Drugs or vehicle (0.5% Tween-80) control are administered orally in a volume of 1 ml/100 g body weight at 1 hour prior to the anti-BSA. Animals are sacrificed at either the time of peak eicosanoid production (i.e. 5 minutes after anti-BSA for immunoreactive TxB2 10 minutes for immunoreactive LTB4, 20 minutes for immunoreactive LTC4) or at the time of peak neutrophil infiltration (4 hours after anti-BSA) by CO2 inhalation. The pleural cavity is then exposed, the fluid exudate removed by gentle vacuum aspiration and the volume of exudate is recorded. […] Cell number is determined on a model ZBI Coulter counter. […]
Eicosanoids are quantitated by RIA according to the procedure specified by the RIA kit manufacturer (Advanced Magnetics, Cambridge, Mass.). […] Antibody-bound labeled eicosanoid is quantitated by counting in a liquid scintillation counter, and is correlated to concentration by a standard curve.
Inflammatory cells are expressed as 10^6 cells/ml, pleural exudate is expressed as ml of fluid, and the amount of eicosanoids in the pleural cavity is expressed as ng/ml of exudate. Mean ±S.E.M. is determined for each group. Percent inhibition (% I) of cell number, exudate volume and eicosanoid production is calculated for vehicle-treated control groups, and the responses in drug-treated rats are then expressed as the mean % I of the control. […]

LTB4 = assay: Reverse passive Arthus pleurisy assay, inflammatory mediator release: LTB4; format: in vivo, rat (male Lewis); conditions: standard drugs
Protocol: as §1, §2
A reverse passive Arthus reaction is induced in the pleural cavity of male Lewis rats (150-200 g; fasted overnight prior to use) by the intravenous administration of bovine serum albumin (BSA; 4 mg/0.2 ml) followed 30 minutes later by the injection of rabbit anti-BSA (1 mg/0.2 ml; lyophilized IgG fraction; Organon Teknika, West Chester, Pa.) into the right pleural space under halothane anesthesia. […] Animals are sacrificed at either the time of peak eicosanoid production (i.e. 5 minutes after anti-BSA for immunoreactive TxB2 10 minutes for immunoreactive LTB4, 20 minutes for immunoreactive LTC4) or at the time of peak neutrophil infiltration (4 hours after anti-BSA) by CO2 inhalation. The pleural cavity is then exposed, the fluid exudate removed by gentle vacuum aspiration and the volume of exudate is recorded. For the determination of cellular infiltration, the pleural cavity is rinsed with 3 ml of 0.1% EDTA in sterile saline, and the recovered wash is pooled with the exudate. Cell number is determined on a model ZBI Coulter counter. For determination of eicosanoid production, undiluted pleural exudate is microfuged and the supernatant is extracted with ethanol (8-10 times volume). Extracts are either stored at -20° C., or are evaporated to dryness under a stream of N2 and reconstituted in radioimmunoassay (RIA) buffer.
Eicosanoids are quantitated by RIA according to the procedure specified by the RIA kit manufacturer (Advanced Magnetics, Cambridge, Mass.). Briefly, 100 μl of ^3 H-labeled eicosanoid and 100 μl of specific antibody are sequentially added to 100 μl of extracted pleural exudate in BGG -phosphate buffer which contains 0.01 M phosphate, 0.1% bovine gamma globulin and 0.1% sodium azide at pH 7.0. Antibody-bound eicosanoid is separated from unbound eicosanoid by the addition of 750 μl of dextran (0.4%)-coated charcoal (0.4% Norit A) containing 0.1% sodium azide. The mixture is centrifuged at 2000 RPM at 5° C. for 15 minutes to pellet the charcoal and adsorbed unbound eicosanoid. Antibody-bound labeled eicosanoid is quantitated by counting in a liquid scintillation counter, and is correlated to concentration by a standard curve.
(§3) Inflammatory cells are expressed as 10^6 cells/ml, pleural exudate is expressed as ml of fluid, and the amount of eicosanoids in the pleural cavity is expressed as ng/ml of exudate. Mean ±S.E.M. is determined for each group. Percent inhibition (% I) of cell number, exudate volume and eicosanoid production is calculated for vehicle-treated control groups, and the responses in drug-treated rats are then expressed as the mean % I of the control. […] Exp. Ther., 96, 99-113 (1949).

[2] = tested on: fluid and cellular phases of an inflammatory response; assay: Reverse passive Arthus pleurisy assay, pleural inflammation (fluid exudation, cellular influx); format: in vivo, rat (male Lewis); conditions: standard drugs
Protocol: as §1, §2
A reverse passive Arthus reaction is induced in the pleural cavity of male Lewis rats (150-200 g; fasted overnight prior to use) by the intravenous administration of bovine serum albumin (BSA; 4 mg/0.2 ml) followed 30 minutes later by the injection of rabbit anti-BSA (1 mg/0.2 ml; lyophilized IgG fraction; Organon Teknika, West Chester, Pa.) into the right pleural space under halothane anesthesia. Drugs or vehicle (0.5% Tween-80) control are administered orally in a volume of 1 ml/100 g body weight at 1 hour prior to the anti-BSA. Animals are sacrificed at either the time of peak eicosanoid production (i.e. 5 minutes after anti-BSA for immunoreactive TxB2 10 minutes for immunoreactive LTB4, 20 minutes for immunoreactive LTC4) or at the time of peak neutrophil infiltration (4 hours after anti-BSA) by CO2 inhalation. The pleural cavity is then exposed, the fluid exudate removed by gentle vacuum aspiration and the volume of exudate is recorded. For the determination of cellular infiltration, the pleural cavity is rinsed with 3 ml of 0.1% EDTA in sterile saline, and the recovered wash is pooled with the exudate. Cell number is determined on a model ZBI Coulter counter. For determination of eicosanoid production, undiluted pleural exudate is microfuged and the supernatant is extracted with ethanol (8-10 times volume). Extracts are either stored at -20° C., or are evaporated to dryness under a stream of N2 and reconstituted in radioimmunoassay (RIA) buffer.
as §3

[3] = tested on: synthesis of the arachidonic acid cyclooxygenase oxidation product PGE2 (rat PMN); assay: Inhibition of cyclooxygenase product PGE2 synthesis by rat PMN; format: cell-based; conditions: negative values denote a potentiation of cyclooxygenase
Protocol: In this assay, the procedure of Example 41 is carried out as described. However, in order to determine cyclooxygenase activity, the samples are cochromatographed with authentic reference [^3 H]-PGE2.

[4] = tested on: 5-lipoxygenase in human whole blood; assay: Inhibition of 5-lipoxygenase in human whole blood (LTB4); format: cell-based
Outline: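 Donor whole blood was preincubated with compound (0.1% final DMSO) 10 min at 37° C, then stimulated with 30 μM A23187 for 20 min at 27° C and stopped with EGTA on ice. Plasma LTB4 quantified by RIA or ELISA as ng/10^6 neutrophils; effects given as percent change from control.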

## O=C(O)Cc1ccc(-c2ccc(OCc3nc4ccccc4s3)cc2)cc1 [Example 12, 4'-(Benzothiazolylmethoxyl)-4-diphenylacetic acid]
[1]; at 2.5 μM
  % Inhibition of LTB4 Synthesis: Inactive

## C[C@H](C(=O)O)c1ccc2cc(OCc3ccc4ccccc4n3)ccc2c1.NC(CO)(CO)CO [Wy-50,295-A]
TxB2; 75 mg/kg p.o.
  % Inh TxB2: 0%

## COc1ccc2cc([C@H](C)C(=O)O)ccc2c1 [Naproxen]
TxB2
  ED50 TxB2: 0.24 mg/kg
LTB4; 4 mg/kg p.o.
  % Inh LTB4: 0%
[2]; 8 mg/kg p.o.
  % Inh Cellular Influx: 29%
[2]; p.o., pleural inflammation
  ED30 Fluid Exudation: 3.9 mg/kg

## CN(O)C(=O)Cc1ccc(-c2ccc(OCc3nc4ccccc4s3)cc2)cc1 [Example 13, 4'-(Benzothiazolylmethoxy)-4-diphenyl-N-hydroxy-N-methyl-acetamide]
[1]
  inhibition at 2.5 µM: 98.9%

## CN=C1CCN(c2cccc(C(F)(F)F)c2)N1 [BW540C, reference compound]
TxB2
  ED50 TxB2: 19 mg/kg
LTB4; p.o., inflammatory mediator release, 10 min
  ED50 LTB4: 30 mg/kg

## CC(c1cc2ccccc2s1)N(O)C(N)=O (stereo not drawn) [A-64,077, reference compound]
[1]
  inhibition at 2.5 µM: 75.8%

## O=C(O)Cc1cccc(C(=O)c2ccc(OCc3ccc4ccccc4n3)cc2)c1 [Example 3, 3-[4-(2-Quinolinylmethoxy)benzoyl]benzene acetic acid]
[3]; at 0.5 μM
  inhibition at 0.5 µM: -8%
[3]; at 10 μM
  inhibition at 10 µM: 8%

## CC(C(=O)N(C)O)c1ccc(-c2ccc(OCc3nc4ccccc4n3C)cc2)cc1 (stereo not drawn) [Example 23]
[4]
  IC50: 11.9 µM
[4]; at 25 μM
  % Inhibition of LTB4: 32%
[1]
  inhibition at 2.5 µM: 99%
